Where two headings read alike, the source gives them in different places. Numbered stars: 1 amine (or outer) side, 2 acyl side, 3 side chain; on linkers, the order of the positions; unused ones are H or OH. Square brackets hold non-standard residues; d marks the D form. Side chains are listed from the residue outwards. Peptide text beside a SMILES is read from it. * marks the point of attachment. C20 diacid = O=C(O)CCCCCCCCCCCCCCCCCCC(=O)*; γGlu = O=C(O)[C@H](CCC(=O)[*:2])N[*:1]; AEEA = NCCOCCOCC(=O)O; Aib = CC(C)(N)C(=O)O

Here are results for seven molecules from patent US20260201008A1, “SECRETIN-DERIVED GLP1R SELECTIVE AGONISTS” (GUBRA A/S, priority 2023, published 2026).

Data set [1] has as its target GLP1R (Homo sapiens, UniProt P43220). Put plainly: hGLP1R potency, cAMP accumulation in CHO-K1 cells stably overexpressing hGLP1R. The settings on record: for Selectivity: SCTR EC50/GLP1R EC50 ratio; for EC50: cAMP accumulation, CHO-K1 cells overexpressing hGLP1R; for SCTR EC50/GLP1R EC50 ratio: selectivity for hGLP1R over hSCTR, cAMP accumulation in CHO-K1 cells. Type of data set: cell-based. More on the design: host or cells: CHO-K1. Summed up: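 Potency reflects cAMP accumulation measured by time-resolved fluorescence energy transfer after a 30 min room-temperature stimulation in IBMX-containing (0.5 mM) DPBS with casein. Purified peptides were tested in duplicate over eleven threefold dilutions, and EC50 was obtained from sigmoid concentration-response fitting.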

Data set [2] is described as follows: Turbidity of crude library peptides (absorbance at 600 nm). It is filed as physicochemical. The settings on record: Physical stability of peptides. Summed up: (§1)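 Values reflect mean ThT emission (ex 450, em 480 nm) over 72 h at 40° C, read every 10 min after 5 min shaking at 700 rpm, plus a single initial absorbance at 600 nm for turbidity. Peptides were at 267 μM, pH 4.0 acetate or pH 7.0 phosphate (50 mM), with 4 μM ThT.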

In data set [3] the target is SCTR (Homo sapiens, UniProt P47872). Put plainly: hSCTR potency, cAMP accumulation in CHO-K1 cells stably overexpressing hSCTR. It is filed as cell-based. More on the design: alternatively Euroscreen ES-712-AF; FAST-0161L; host or cells: CHO-K1. The settings on record: cAMP accumulation, CHO-K1 cells overexpressing hSCTR. Summed up: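 Potency reflects cAMP accumulation after 30 min agonist exposure at room temperature in hSCTR-expressing CHO-K1 cells, with 0.5 mM IBMX present to block phosphodiesterase. EC50 was derived by nonlinear regression.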
SCTR, sequence (P47872 23-440): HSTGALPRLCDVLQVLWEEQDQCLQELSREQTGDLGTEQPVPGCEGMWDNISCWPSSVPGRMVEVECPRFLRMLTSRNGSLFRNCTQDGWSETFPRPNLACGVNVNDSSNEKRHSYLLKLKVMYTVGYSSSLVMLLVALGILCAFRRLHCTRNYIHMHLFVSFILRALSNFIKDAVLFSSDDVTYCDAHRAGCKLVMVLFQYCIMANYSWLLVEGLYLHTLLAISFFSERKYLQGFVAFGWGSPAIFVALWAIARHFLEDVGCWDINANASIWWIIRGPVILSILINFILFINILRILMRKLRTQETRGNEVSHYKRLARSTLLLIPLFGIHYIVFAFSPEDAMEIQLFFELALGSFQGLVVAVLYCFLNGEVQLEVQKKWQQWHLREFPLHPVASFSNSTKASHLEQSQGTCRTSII

A short description of data set [4]: Fibril formation of crude library peptides (Thioflavin T). Type of data set: physicochemical. More on the design: key: average ThT fluorescence emission at 480 nm (ex 450 nm), raw units. The conditions noted are these: Physical stability of peptides. In short, it runs like this:
as §1

Where [5] appears, read: read-out: pEC50 hGLPR1 (converted).
The mark [6] stands for this setting: read-out: pEC50 hSCTR (converted).
The mark [7] stands for this setting: read-out: hGLP1R pEC50 (converted).
Where [8] appears, read: read-out: hSCTR pEC50 (converted).

GLP1R, sequence (P43220 24-463): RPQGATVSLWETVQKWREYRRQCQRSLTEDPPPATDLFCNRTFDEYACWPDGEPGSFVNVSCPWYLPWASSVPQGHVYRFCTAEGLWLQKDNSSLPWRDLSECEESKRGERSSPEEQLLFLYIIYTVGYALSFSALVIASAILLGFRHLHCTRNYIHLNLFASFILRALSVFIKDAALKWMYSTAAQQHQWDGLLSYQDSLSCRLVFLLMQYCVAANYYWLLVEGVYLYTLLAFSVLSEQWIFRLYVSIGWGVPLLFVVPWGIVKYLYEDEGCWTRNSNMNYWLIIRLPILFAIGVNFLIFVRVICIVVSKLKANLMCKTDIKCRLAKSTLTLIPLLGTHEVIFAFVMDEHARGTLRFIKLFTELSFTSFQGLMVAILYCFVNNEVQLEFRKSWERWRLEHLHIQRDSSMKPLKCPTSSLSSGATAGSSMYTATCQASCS

Consider `CC(C)C[C@H](NC(=O)[C@H](CCC(=O)O)NC(=O)[C@H](CCCCNC(=O)COCCOCCNC(=O)COCCOCCNC(=O)CC[C@H](NC(=O)CCCCCCCCCCCCCCCCCCC(=O)O)C(=O)O)NC(=O)[C@H](CC(C)C)NC(=O)[C@H](CCC(=O)O)NC(=O)[C@H](CO)NC(=O)[C@@H](NC(=O)[C@H](CC(=O)O)NC(=O)[C@H](CO)NC(=O)[C@@H](NC(=O)[C@H](Cc1ccccc1)NC(=O)[C@@H](NC(=O)CNC(=O)[C@H](CCC(=O)O)NC(=O)C(C)(C)NC(=O)[C@@H](N)Cc1c[nH]cn1)[C@@H](C)O)[C@@H](C)O)C(C)C)C(=O)N[C@@H](C)C(=O)N[C@@H](C)C(=O)N[C@@H](CO)C(=O)N[C@@H](CCC(N)=O)C(=O)N[C@@H](CCCNC(=N)N)C(=O)N[C@@H](Cc1ccccc1)C(=O)N[C@@H](CC(C)C)C(=O)N[C@@H](CCC(=O)O)C(=O)N[C@@H](Cc1c[nH]cn1)C(=O)N[C@@H](CC(C)C)C(=O)N[C@H](C(N)=O)C(C)C` [compound 12] (H-H[Aib]EGTFTSDVSELK([AEEA-AEEA-γGlu-C20 diacid])ELAASQRFLEHLV-NH2), for which the Selectivity in data set [1] came to 33473. Also, the EC50 in data set [1] (setting [5]) was 0.02 nM; in data set [3] (setting [6]), 631 nM. Moreover, the “Turbidity (pH 7)” value in data set [2] stood at 0.09. The Fibril formation in data set [4] is reported as 7904.

With `CC[C@H](C)[C@H](NC(=O)[C@H](Cc1ccccc1)NC(=O)[C@H](CCCNC(=N)N)NC(=O)[C@H](CCC(N)=O)NC(=O)[C@H](CC(C)C)NC(=O)[C@H](C)NC(=O)[C@H](C)NC(=O)CNC(=O)[C@H](CCC(=O)O)NC(=O)[C@H](CC(C)C)NC(=O)[C@H](CC(C)C)NC(=O)[C@@H](NC(=O)[C@H](CO)NC(=O)[C@@H](NC(=O)[C@H](CC(=O)O)NC(=O)[C@H](CO)NC(=O)[C@@H](NC(=O)[C@H](Cc1ccccc1)NC(=O)[C@@H](NC(=O)CNC(=O)[C@H](CCC(=O)O)NC(=O)C(C)(C)NC(=O)[C@@H](N)Cc1c[nH]cn1)[C@@H](C)O)[C@@H](C)O)C(C)C)C(C)C)C(=O)N[C@@H](CCC(N)=O)C(=O)N[C@@H](Cc1c[nH]c2ccccc12)C(=O)N[C@@H](CC(C)C)C(=O)N[C@H](C(N)=O)C(C)C` [compound 184] (H-H[Aib]EGTFTSDVSVLLEGAALQRFIQWLV-NH2), the EC50 in data set [1] (setting [7]) is 0.0251 nM; in data set [3] (setting [8]), 251 nM. Besides, the “SCTR EC50/GLP1R EC50 ratio” value in data set [1] was 10252. In data set [2], the “Turbidity (pH 7)” value came to 0.43. Moreover, in data set [4], the Fibril formation is 260000.

In the case of `CC(C)C[C@H](NC(=O)[C@H](Cc1ccccc1)NC(=O)[C@H](CCCNC(=N)N)NC(=O)[C@H](CCC(N)=O)NC(=O)C(C)(C)NC(=O)[C@H](C)NC(=O)[C@H](C)NC(=O)[C@H](CCC(=O)O)NC(=O)[C@H](CCC(=O)O)NC(=O)[C@H](CCCCNC(=O)COCCOCCNC(=O)COCCOCCNC(=O)CC[C@H](NC(=O)CCCCCCCCCCCCCCCCCCC(=O)O)C(=O)O)NC(=O)[C@H](CC(C)C)NC(=O)[C@H](Cc1ccccc1)NC(=O)[C@H](CO)NC(=O)[C@@H](NC(=O)[C@H](CC(=O)O)NC(=O)[C@H](CO)NC(=O)[C@@H](NC(=O)[C@H](Cc1ccccc1)NC(=O)[C@@H](NC(=O)CNC(=O)[C@H](CCC(=O)O)NC(=O)C(C)(C)NC(=O)[C@@H](N)Cc1c[nH]cn1)[C@@H](C)O)[C@@H](C)O)C(C)C)C(=O)N[C@@H](CCC(=O)O)C(=O)N[C@@H](Cc1c[nH]cn1)C(=O)N[C@@H](CC(C)C)C(=O)N[C@H](C(N)=O)C(C)C` [compound 37] (H-H[Aib]EGTFTSDVSFLK([AEEA-AEEA-γGlu-C20 diacid])EEAA[Aib]QRFLEHLV-NH2), the Selectivity in data set [1] was 158052. Further, the EC50 in data set [1] (setting [5]) is 0.0126 nM; in data set [3] (setting [6]), 2000 nM. Moreover, the “Turbidity (pH 7)” value in data set [2] is recorded as 0.08. This molecule showed a Fibril formation in data set [4] of 12367.

In the case of `CC(C)C[C@H](NC(=O)[C@H](Cc1ccccc1)NC(=O)[C@H](CCCNC(=N)N)NC(=O)[C@H](CCC(N)=O)NC(=O)[C@@H](NC(=O)C(C)(C)NC(=O)[C@H](C)NC(=O)[C@H](CCC(=O)O)NC(=O)[C@H](CCC(=O)O)NC(=O)[C@H](CCCCNC(=O)COCCOCCNC(=O)COCCOCCNC(=O)CC[C@H](NC(=O)CCCCCCCCCCCCCCCCCCC(=O)O)C(=O)O)NC(=O)[C@H](CC(C)C)NC(=O)[C@H](Cc1ccc(O)cc1)NC(=O)[C@H](CO)NC(=O)[C@@H](NC(=O)[C@H](CC(=O)O)NC(=O)[C@H](CO)NC(=O)[C@@H](NC(=O)[C@H](Cc1ccccc1)NC(=O)[C@@H](NC(=O)CNC(=O)[C@H](CCC(=O)O)NC(=O)C(C)(C)NC(=O)[C@@H](N)Cc1c[nH]cn1)[C@@H](C)O)[C@@H](C)O)C(C)C)[C@@H](C)O)C(=O)N[C@@H](CCC(=O)O)C(=O)N[C@@H](Cc1c[nH]cn1)C(=O)N[C@@H](CC(C)C)C(=O)N[C@H](C(N)=O)C(C)C` [compound 162] (H-H[Aib]EGTFTSDVSYLK([AEEA-AEEA-γGlu-C20 diacid])EEA[Aib]TQRFLEHLV-NH2), the “SCTR EC50/GLP1R EC50 ratio” value in data set [1] came out at 178176. For the same molecule, the “Turbidity (pH 7)” value in data set [2] stood at 0.08. Also, the EC50 in data set [3] (setting [8]) was 126 nM. The Fibril formation in data set [4] stood at 4281.

In the case of `CC(C)C[C@H](NC(=O)[C@H](CCC(=O)O)NC(=O)[C@H](CCCCNC(=O)COCCOCCNC(=O)COCCOCCNC(=O)CC[C@H](NC(=O)CCCCCCCCCCCCCCCCCCC(=O)O)C(=O)O)NC(=O)[C@H](CC(C)C)NC(=O)[C@H](Cc1ccc(O)cc1)NC(=O)[C@H](CO)NC(=O)[C@@H](NC(=O)[C@H](CC(=O)O)NC(=O)[C@H](CO)NC(=O)[C@@H](NC(=O)[C@H](Cc1ccccc1)NC(=O)[C@@H](NC(=O)CNC(=O)[C@H](CCC(=O)O)NC(=O)C(C)(C)NC(=O)[C@@H](N)Cc1c[nH]cn1)[C@@H](C)O)[C@@H](C)O)C(C)C)C(=O)N[C@@H](C)C(=O)N[C@@H](C)C(=O)N[C@@H](C)C(=O)N[C@@H](CCC(N)=O)C(=O)N[C@@H](CCCNC(=N)N)C(=O)N[C@@H](Cc1ccccc1)C(=O)N[C@@H](CC(C)C)C(=O)N[C@@H](CCC(=O)O)C(=O)N[C@@H](Cc1c[nH]cn1)C(=O)N[C@@H](CC(C)C)C(=O)N[C@H](C(N)=O)C(C)C` [compound 86] (H-H[Aib]EGTFTSDVSYLK([AEEA-AEEA-γGlu-C20 diacid])ELAAAQRFLEHLV-NH2), the EC50 was 0.2 nM in data set [1] (setting [7]) and 3980 nM in data set [3] (setting [8]). For the same molecule, in data set [1], the “SCTR EC50/GLP1R EC50 ratio” value worked out at 19815. For the same molecule, in data set [2], the “Turbidity (pH 7)” value is listed as 0.08. In data set [4], this molecule showed a Fibril formation of 9344.

Regarding `CC(C)C[C@H](NC(=O)[C@H](Cc1ccccc1)NC(=O)[C@H](CCCNC(=N)N)NC(=O)[C@H](CCC(N)=O)NC(=O)[C@@H](NC(=O)C(C)(C)NC(=O)[C@H](C)NC(=O)[C@H](CCC(=O)O)NC(=O)[C@H](CCC(=O)O)NC(=O)[C@H](CCCCNC(=O)COCCOCCNC(=O)COCCOCCNC(=O)CC[C@H](NC(=O)CCCCCCCCCCCCCCCCCCC(=O)O)C(=O)O)NC(=O)[C@H](CC(C)C)NC(=O)[C@H](Cc1ccc(O)cc1)NC(=O)[C@H](CO)NC(=O)[C@@H](NC(=O)[C@H](CC(=O)O)NC(=O)[C@H](CO)NC(=O)[C@@H](NC(=O)[C@H](Cc1ccccc1)NC(=O)[C@@H](NC(=O)CNC(=O)[C@H](CCC(=O)O)NC(=O)C(C)(C)NC(=O)[C@@H](N)Cc1c[nH]cn1)[C@@H](C)O)[C@@H](C)O)C(C)C)C(C)C)C(=O)N[C@@H](CCC(=O)O)C(=O)N[C@@H](Cc1c[nH]cn1)C(=O)N[C@@H](CC(C)C)C(=O)N[C@H](C(N)=O)C(C)C` [compound 161] (H-H[Aib]EGTFTSDVSYLK([AEEA-AEEA-γGlu-C20 diacid])EEA[Aib]VQRFLEHLV-NH2), the EC50 was 0.00398 nM in data set [1] (setting [7]) and 158 nM in data set [3] (setting [8]). In data set [1], the “SCTR EC50/GLP1R EC50 ratio” value is listed as 42442. Besides, in data set [2], the “Turbidity (pH 7)” value was determined as 0.08. In data set [4], this molecule returned a Fibril formation of 3973.

With `CC(C)C[C@H](NC(=O)[C@H](CCC(=O)O)NC(=O)[C@H](CCCCNC(=O)COCCOCCNC(=O)COCCOCCNC(=O)CC[C@H](NC(=O)CCCCCCCCCCCCCCCCCCC(=O)O)C(=O)O)NC(=O)[C@H](CC(C)C)NC(=O)[C@H](CCC(=O)O)NC(=O)[C@H](CO)NC(=O)[C@@H](NC(=O)[C@H](CC(=O)O)NC(=O)[C@H](CO)NC(=O)[C@@H](NC(=O)[C@H](Cc1ccccc1)NC(=O)[C@@H](NC(=O)CNC(=O)[C@H](CCC(=O)O)NC(=O)C(C)(C)NC(=O)[C@@H](N)Cc1c[nH]cn1)[C@@H](C)O)[C@@H](C)O)C(C)C)C(=O)N[C@@H](C)C(=O)N[C@@H](C)C(=O)N[C@@H](CCC(=O)O)C(=O)N[C@@H](CCC(N)=O)C(=O)N[C@@H](CCCNC(=N)N)C(=O)N[C@@H](Cc1ccccc1)C(=O)N[C@@H](CC(C)C)C(=O)N[C@@H](CCC(=O)O)C(=O)N[C@@H](Cc1c[nH]cn1)C(=O)N[C@@H](CC(C)C)C(=O)N[C@H](C(N)=O)C(C)C` [compound 36] (H-H[Aib]EGTFTSDVSELK([AEEA-AEEA-γGlu-C20 diacid])ELAAEQRFLEHLV-NH2), the Selectivity in data set [1] was 11143. Besides, the EC50 in data set [1] (setting [5]) was 0.0316 nM; in data set [3] (setting [6]), 316 nM. Further, the “Turbidity (pH 7)” value in data set [2] is 0.09. This molecule came in with a Fibril formation in data set [4] of 9625.
